Experimental data published in US20260034277A1, “SYSTEMS AND METHODS FOR PATHOGEN INACTIVATION OF BLOOD PRODUCTS” (Cerus Corporation, priority 2024, published 2026).

Key:
Type in all cases: cell-based
Klebsiella pneumoniae = Klebsiella pneumoniae inactivation in platelet units with amotosalen/UVA, colony forming unit assay
Description: A study was performed to evaluate pathogen inactivation with treatment profiles from Example 1 and the bacterium Klebsiella pneumoniae. Units of platelets, prepared in 47% plasma/53% PAS at a volume of 250 mL (except the 70 μM study group at a volume of 200 mL), were inoculated with an overnight culture of Klebsiella pneumoniae (targeting the final concentration in unit of approximately 6 log CFU/mL) and dosed with the target amotosalen concentration (40 μM, 45 μM, 55 μM or 70 μM) in an illumination container of an INTERCEPT® Blood System processing set. The units were mixed well, and samples were collected from each unit prior to UV illumination to determine pre-treatment bacterial titers and amotosalen concentration. The Klebsiella-contaminated platelet units were then subjected to a UVA light dose of 3.8 J/cm^2 (3.2 J/cm^2 for the 200 mL units) using an illuminator with LED light sources having peak wavelength between 340-350 nm. Samples were collected post-illumination and both the pre- and post-UVA illumination samples were analyzed by standard colony forming unit assay to determine the level of bacterial inactivation.
A similar study was performed with the bacterium Klebsiella pneumoniae. Four units of platelets in 47% plasma/53% PAS at a volume of 450 mL were inoculated in a 1.3 L illumination container with an overnight culture of Klebsiella pneumoniae at a target input pathogen concentration of approximately 8 log CFU/mL per unit and dosed with S-59 to achieve a target concentration of 55 μM. Samples were collected pre- and post-UVA illumination with a light dose of 6.3 J/cm^2 for determination of bacterial titers by standard colony forming unit assay and S-59 concentration by HPLC.

bluetongue virus (BTV) = experiment: Bluetongue virus inactivation in platelet units with amotosalen/UVA, plaque assay
Description: A study was performed to evaluate pathogen inactivation with treatment profiles from Example 1 and the non-enveloped virus bluetongue virus (BTV). Units of platelets, prepared in 47% plasma/53% PAS at a volume of 250 mL, were inoculated with BTV (targeting the final concentration in unit of approximately 4.5 log PFU/mL), and dosed with the target amotosalen concentration (40 μM, 50 μM, 60 μM, or 70 μM) in an illumination container of an INTERCEPT® Blood System processing set. The units were mixed well, and samples were collected from each unit prior to UV illumination to determine pre-treatment viral titers and amotosalen concentration. The BTV-contaminated platelet units were then subjected to a UVA light dose of 3.8 J/cm^2 using an illuminator with LED light sources having peak wavelength between 340-350 nm. Samples were collected post-illumination, and both the pre- and post-UVA illumination samples were analyzed by standard plaque assay to determine the level of virus inactivation.
Pathogen inactivation of both viruses and bacteria was also tested using dosing device system-based quantized dosing of amotosalen and the treatment parameters described above. In one study, four units of platelets in 47% plasma/53% PAS at a higher 450 mL volume were inoculated in a 1.3 L illumination container with bluetongue virus (BTV) at a target pathogen input concentration of approximately 5.0 log PFU/mL per unit and dosed with amotosalen (S-59) to achieve at a target concentration of 55 μM. The units were mixed, and samples were collected from each unit prior to UV illumination to determine pre-treatment viral titers and S-59 concentration. The BTV-contaminated platelet units were then subjected to a UVA light dose of 6.3 J/cm^2 using an illuminator with LED light sources having peak wavelength between 340-350 nm. Samples were collected post-illumination, and both the pre- and post-UVA illumination samples were analyzed by standard plaque assay to determine the level of virus inactivation and by HPLC to determine the S-59 concentration.

adenovirus type 5 (Ad5) = experiment: Adenovirus type 5 inactivation in platelet units with amotosalen/UVA, plaque assay; settings: for Log Reduction / Post-UVA PFU/mL: 250 mL platelets, UVA 3.8 J/cm^2
Description: Another study was performed evaluating pathogen inactivation with treatment profiles from Example 1 and the non-enveloped virus adenovirus type 5 (Ad5). Units of platelets, prepared in 47% plasma/53% PAS at a volume of 250 mL, were inoculated with Ad5 (targeting the final concentration in unit of approximately 4.5 or 6.5 log PFU/mL), and dosed with the target amotosalen concentration (45 μM or 50 μM) in an illumination container of an INTERCEPT® Blood System processing set. The units were mixed well, and samples were collected from each unit prior to UV illumination to determine pre-treatment viral titers and amotosalen concentration. The Ad5-contaminated platelet units were then subjected to a UVA light dose of 3.8 J/cm^2 using an illuminator with LED light sources having peak wavelength between 340-350 nm. Samples were collected post-illumination and both the pre- and post-UVA illumination samples were analyzed by standard plaque assay to determine the level of virus inactivation.

[1] = device-dosed S-59 target 55 μM, 450 mL platelets, 1.3 L container, UVA 6.3 J/cm^2
[2] = target S-59 40 μM, 250 mL platelets, UVA 3.8 J/cm^2
[3] = target S-59 45 μM, 250 mL platelets, UVA 3.8 J/cm^2
[4] = target S-59 55 μM, 250 mL platelets, UVA 3.8 J/cm^2
[5] = target S-59 70 μM, 200 mL platelets, UVA 3.2 J/cm^2
[6] = target S-59 50 μM, 250 mL platelets, UVA 3.8 J/cm^2
[7] = target S-59 60 μM, 250 mL platelets, UVA 3.8 J/cm^2
[8] = target S-59 70 μM, 250 mL platelets, UVA 3.8 J/cm^2
[9] = target S-59 45 μM, Pre-UVA 4.1 Log PFU/mL
[10] = target S-59 50 μM, Pre-UVA 4.5 Log PFU/mL
[11] = target S-59 50 μM, Pre-UVA 6.7 Log PFU/mL

With Cc1oc2c(C)c3oc(=O)cc(C)c3cc2c1COCCN [S-59, 3-(2-aminoethoxymethyl)-2,5,9-trimethylfuro[3,2-g]chromen-7-one] the Post-UVA titer (Klebsiella pneumoniae; [1]) was 0.3 ± 0.4 cfu/mL, the “bacterial inactivation (log reduction)” value (Klebsiella pneumoniae; each of the four target amotosalen input concentrations (40, 45, 55, 70 μM)) was “greater than 5 logs” and the “Log Reduction” value (Klebsiella pneumoniae; [2]) was 5.6 ± 0.8 log. For the same compound, the “Post-UVA CFU/mL” value (Klebsiella pneumoniae; [2]) was 6.7 ± 11.5 CFU/mL, the “Log Reduction” value (Klebsiella pneumoniae; [3]) was 5.9 ± 0.0 log and the “Post-UVA CFU/mL” value (Klebsiella pneumoniae; [3]) was 0.2 ± 0.1 CFU/mL. The “Log Reduction” value (Klebsiella pneumoniae; [4]) was 6.0 ± 0.1 log, the “Post-UVA CFU/mL” value (Klebsiella pneumoniae; [4]) was 0.4 ± 0.5 CFU/mL and the “Log Reduction” value (Klebsiella pneumoniae; [5]) was no less than 6.1 ± 0.1 log. For the same compound, the “Post-UVA CFU/mL” value (Klebsiella pneumoniae; [5]) was 0.03 ± 0.1 CFU/mL, the Log Reduction (bluetongue virus (BTV); [1]) was 5.0±0.4 Log (pfu/mL) and the Post-UVA titer (bluetongue virus (BTV); [1]) was 0.7 ± 0.6 pfu/mL. For the same compound, the viral inactivation (bluetongue virus (BTV); each of the four target amotosalen input concentrations (40, 50, 60, 70 μM)) was “greater than 4 logs”, the “Log Reduction” value (bluetongue virus (BTV); [2]) was 4.4 ± 0.1 log and the “Post-UVA PFU/mL” value (bluetongue virus (BTV); [2]) was 0.3 ± 0.1 PFU/mL. For the same compound, the “Log Reduction” value (bluetongue virus (BTV); [6]) was 4.4 ± 0.4 log, the “Post-UVA PFU/mL” value (bluetongue virus (BTV); [6]) was 0.1 ± 0.1 PFU/mL and the “Log Reduction” value (bluetongue virus (BTV); [7]) was greater than 4.6 ± 0.5 log. The “Post-UVA PFU/mL” value (bluetongue virus (BTV); [7]) was 0.02 ± 0.03 PFU/mL, the “Log Reduction” value (bluetongue virus (BTV); [8]) was 4.2 ± 0.1 log and the “Post-UVA PFU/mL” value (bluetongue virus (BTV); [8]) was 0.1 ± 0.2 PFU/mL. For the same compound, the viral inactivation (adenovirus type 5 (Ad5); each of the 45 μM or 50 μM target amotosalen input concentrations) was “greater than 4 logs”, the “Log Reduction” value (adenovirus type 5 (Ad5); [9]) was greater than 4.1 ± 0.2 log and the “Post-UVA PFU/mL” value (adenovirus type 5 (Ad5); [9]) was 0.0 ± 0.0 PFU/mL. For the same compound, the “Log Reduction” value (adenovirus type 5 (Ad5); [10]) was 4.5 ± 0.0 log, the “Post-UVA PFU/mL” value (adenovirus type 5 (Ad5); [10]) was 0.0 ± 0.0 PFU/mL and the “Log Reduction” value (adenovirus type 5 (Ad5); [11]) was no less than 6.3 ± 0.5 log. For the same compound, the “Post-UVA PFU/mL” value (adenovirus type 5 (Ad5); [11]) was no more than 6.9 ± 12.7 PFU/mL.
